In US10232013B2, “Use of an antimicrobial peptide TP4 in treating a cancer” (Academia Sinica, priority 2016, dated 2019):
Counter-ions that a name gives are not always drawn.

Assays:
Assay type in all cases: cell-based, human
FOSB in MB231 cells = assay: FOSB induction, Western blot/immunocytochemistry, MB231; details: for effect of inhibitor on TP4-induced FOSB induction: TNBC cells, pre-treatment prior to TP4, Western blot
Description: (§1) Nuclear extracts were prepared as previously described^23. Equal amounts of nuclear extract (200 μg) were used for immunoprecipitation (IP) using Dynabeads protein G (ThermoFisher Scientific), in accordance with the recommended protocol. cJUN antibody (ThermoFisher Scientific, clone C.238.2) was used for immunoprecipitation. Total cell extract preparation and Western blot were performed as previously described^23. Equal amounts of boiled lysate (20 μg of total cell extract) were separated on acrylamide gels, and then transferred to PVDF membranes. The membranes were incubated in blocking solution (0.1 M PBS, 5% non-fat milk, 0.2% Tween-20) for 1 h at room temperature (RT), and then incubated in the same solution with primary or secondary antibodies (GE Healthcare Life Science). […] Membranes were visualized with enhanced chemiluminescence (Immobilon Western Chemiluminescent HRP substrate, Merck Millipore) and detected by an imaging system (UVP, BioSpectrum™ 500). Signal intensities were determined by densitometric analysis (AlphaInnotech) using the AlphaImager program. The results were expressed as relative densitometric units (RDU) (the densitometric units of FOSB+FOSΔB divided by those of GAPDH).
The plasma membrane and mitochondria were stained by pre-incubating biotinylated-TP4 treated cells (14 μg mL^−1, 3 h) with Alexa Flour 647 dye-conjugated wheat germ agglutinin (WGA) (5 μg mL^−1) (ThermoFisher Scientific) for 10 min at 37° C. or with MitoTracker® Red CMXRos probe (200 nM) (ThermoFisher Scientific) for 45 min at 37° C. prior to cell fixation. […] The fluorescent signal (which is proportional to functional mitochondria) was quantitatively determined using Image J software. […] The fluorescent FOSB signal was quantitatively determined using Image J software. […]

MB231 (MDA-MB231) cells = assay: MTS cell viability assay, MB231; details: MB231, inhibitor added 30 min prior to TP4, cell viability
Description: Cell-lines used in this study were purchased from the Bioresource Collection and Research Center (BCRC) in and the cells were cultured by the standard cell culture procedures and conditions provided by the BCRC. MB231 (BCRC 60425), MB453 (BCRC 60429), and HDF cells were cultured as previously described by Ting et al. MCF7 […] cells were maintained in α-MEM medium (ThermoFisher Scientific) supplemented with 2 mM L-glutamine, 10% FBS, 0.1 mM non-essential amino acids, 1 mM sodium pyruvate, and antibiotics (100 U mL^−1 penicillin G and […] streptomycin). M10 (BCRC 60197) cells were maintained in α-MEM medium (ThermoFisher Scientific) supplemented with 10% FBS and antibiotics. With the exception of MB231 and MB453, all cells were cultured at 37° C. with 5% CO2. For the cell viability and transfection assay, 1×10^4 cells [5×10^3 M10 cells were seeded and cultured for 48 h to allow the cells sufficient time for attachment] were seeded into the wells of a 96-well plate and cultured overnight. For the transfection assays, cells were transfected with 0.1-0.4 μg FOSB/FOSAB expression plasmid (Origene Technology Inc.) and cell viability was determined after 72 h. The transfection efficiencies (number of cells expressing eGFP/all cells) of the MB231 transfection assays were determined by observing ten randomly selected fields (from three independent transfections) of control GFP plasmid transfections under an inverted microscope (Olympus, IX71) coupled to a digital camera (Olympus DP80), using an […] (LCPlanFI 20×/0.40 Ph1). CellSens standard software (Olympus) was used for image acquisition. During the drug treatment assay, inhibitors (PD98059, BAPTA-AM, and AlP II) were added 30 min prior to TP4, and cell viability was determined at indicated time-points. Transfection was performed using LipofectAMINE™ 3000 (ThermoFisher Scientific), according to the manufacturer's recommendations. Knock-down cells were generated by transducing MB231 cells with pre-synthesized FOSB (or control) shRNA lentiviral particles (Santa Cruz Biotechnology), and selecting puromycin-resistant cells in accordance with the manufacturer's standard protocol. MB231 or M10 cells stably expressing eGFP or mOrange2 were generated through transfection with peGFP-puromycin or pmOrange2-C1 plasmid, followed by puromycin (5 μg mL^−1) or G418 (500 μg mL^−1) selection as described above.
Cell viability was quantitatively analyzed using the CellTiter-Glo® Luminescent Cell Viability Assay kit (ATP assay) and CellTiter 96® AQueous Non-Radioactive Cell Proliferation Assay kit (MTS assay) (Promega) in accordance with the manufacturer's protocol. For MTS assay, 1×10^4 cells were seeded into the wells of a 96-well plate and cultured overnight [5×10^3 M10 cells were seeded and cultured for 48 h to enable sufficient well attachment]. Cells were subsequently treated with different doses of TP4 (2.5-20 μg mL^−1) and harvested at the indicated time-points (3-24 h). Reaction mixtures (20 μL: MTS+PMS, using a ratio 20:1) were directly added to the cells, and the plates were incubated for 3 h at 37° C. Absorbance at 490 nm is directly proportional to the number of living cells in culture and was measured using a photometer (SpectraMax® i3, Molecular Devices). ATP assay was performed as previously described by Ting et al. Lactate dehydrogenase (LDH) assays were performed by quantitatively measuring cell lysis with a Cytotoxicity Detection Kit^PLUS (LDH) (Roche) in accordance with the manufacturer's protocol. The LDH standard was purchased from Cayman Chemical. Briefly, 1×10^4 cells were seeded into the wells of a 96-well plate and cultured overnight. Culture media were replaced with fresh medium containing 1% FBS and cells were subsequently treated with different doses of TP4 (2.5-20 μg mL^−1). Supernatants were harvested at 3 h. […]

FOSB in MB453 cells = assay: FOSB induction, Western blot/immunocytochemistry, MB453; details: Western blot
Description: as §1, with “GAPDH). […]” for “GAPDH).”

FOSB in MCF7 cells = assay: FOSB induction, Western blot/immunocytochemistry, MCF7; details: Western blot
Description: as §1, with “GAPDH). […]” for “GAPDH).”

| Molecule | effect of inhibitor on TP4-induced TNBC cell death (MB231 (MDA-MB231) cells) | effect of inhibitor on TP4-induced FOSB induction (FOSB in MB231 cells) | FOSB induction (FOSB in MB453 cells) | FOSB induction (FOSB in MCF7 cells) | further results |
| --- | --- | --- | --- | --- | --- |
| COc1cccc2c1C(=O)c1c(O)c3c(c(O)c1C2=O)C[C@@](O)(C(=O)CO)C[C@@H]3O[C@H]1C[C@H](N)[C@H](O)[C@H](C)O1 [doxorubicin, Doxorubicin hydrochloride] | – | – | – | – | FOSB induction (FOSB in MB231 cells; MB231 (TNBC) cells, Western blot): induced strong FOSB expression |
| COc1cccc(-c2cc(=O)c3ccccc3o2)c1N [PD98059, reference compound] | disrupted | – | – | – | – |
| Autocamtide-2 related inhibitory peptide II [AIP2, reference compound] | partly prevented | trend towards decrease, but not complete block | – | – | – |
| CC(=O)OCOC(=O)CN(CC(=O)OCOC(C)=O)c1ccccc1OCCOc1ccccc1N(CC(=O)OCOC(C)=O)CC(=O)OCOC(C)=O [BAPTA/AM, 1,2-Bis(2-aminophenoxy)ethane-N,N,N,N-tetraacetic acid tetrakis(acetoxymethyl ester), reference compound] | disrupted | disrupted | – | – | – |
| CC(=O)O[C@@]12CO[C@@H]1C[C@H](O)[C@@]1(C)C(=O)[C@H](O)C3=C(C)[C@@H](OC(=O)[C@H](O)[C@@H](NC(=O)OC(C)(C)C)c4ccccc4)C[C@@](O)([C@@H](OC(=O)c4ccccc4)[C@H]21)C3(C)C [docetaxel, Docetaxel] | – | – | induced FOSB | induced FOSB | – |
| CC(=O)O[C@H]1C(=O)[C@@]2(C)[C@H]([C@H](OC(=O)c3ccccc3)[C@]3(O)C[C@H](OC(=O)[C@H](O)[C@@H](NC(=O)c4ccccc4)c4ccccc4)C(C)=C1C3(C)C)[C@]1(OC(C)=O)CO[C@@H]1C[C@@H]2O [paclitaxel, Paclitaxel] | – | – | induced FOSB | induced FOSB | – |
